PMC11558128 (Advanced Science, 2024)
Where two headings read alike, the source gives them in different places. Positions of bridges follow the written chain, without caps; N, C: chain ends. Residues, ends and D or L forms follow the SMILES beside them.

How the values were obtained:
[1] = system: acutely isolated rat cardiomyocytes; conditions: 3 mM, n = 6
rKv4.2 = target: T1, rKv4.2 (Rattus norvegicus, UniProt Q63881); assay: cell-based; conditions: SEM; for IC50: whole-cell patch clamp, HEK293T, n = 3-8
T1 construct: expressed in transfected cells; host or cells: HEK293T
T1 sequence (Q63881 1-630): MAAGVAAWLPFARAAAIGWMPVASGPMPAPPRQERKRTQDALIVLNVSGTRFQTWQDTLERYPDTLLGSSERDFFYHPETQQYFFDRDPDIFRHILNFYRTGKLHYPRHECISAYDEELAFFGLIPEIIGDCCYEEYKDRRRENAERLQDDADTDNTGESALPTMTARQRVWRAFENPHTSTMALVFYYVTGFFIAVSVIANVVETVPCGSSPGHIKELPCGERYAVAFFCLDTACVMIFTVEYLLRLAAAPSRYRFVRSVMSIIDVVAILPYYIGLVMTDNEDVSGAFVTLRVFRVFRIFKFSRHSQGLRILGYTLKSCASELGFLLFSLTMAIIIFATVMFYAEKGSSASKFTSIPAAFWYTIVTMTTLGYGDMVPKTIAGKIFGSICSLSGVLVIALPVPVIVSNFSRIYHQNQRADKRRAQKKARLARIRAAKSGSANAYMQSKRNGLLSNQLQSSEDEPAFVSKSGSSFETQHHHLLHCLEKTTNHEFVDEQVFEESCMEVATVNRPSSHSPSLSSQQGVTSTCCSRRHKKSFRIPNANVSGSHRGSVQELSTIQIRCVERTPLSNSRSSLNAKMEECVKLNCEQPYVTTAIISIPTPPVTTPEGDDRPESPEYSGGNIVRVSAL

rKv4.3 = target: T2, rKv4.3 (Rattus norvegicus, UniProt Q62897); assay: cell-based
T2 construct: expressed in transfected cells; host or cells: HEK293T
T2 sequence (Q62897 1-655): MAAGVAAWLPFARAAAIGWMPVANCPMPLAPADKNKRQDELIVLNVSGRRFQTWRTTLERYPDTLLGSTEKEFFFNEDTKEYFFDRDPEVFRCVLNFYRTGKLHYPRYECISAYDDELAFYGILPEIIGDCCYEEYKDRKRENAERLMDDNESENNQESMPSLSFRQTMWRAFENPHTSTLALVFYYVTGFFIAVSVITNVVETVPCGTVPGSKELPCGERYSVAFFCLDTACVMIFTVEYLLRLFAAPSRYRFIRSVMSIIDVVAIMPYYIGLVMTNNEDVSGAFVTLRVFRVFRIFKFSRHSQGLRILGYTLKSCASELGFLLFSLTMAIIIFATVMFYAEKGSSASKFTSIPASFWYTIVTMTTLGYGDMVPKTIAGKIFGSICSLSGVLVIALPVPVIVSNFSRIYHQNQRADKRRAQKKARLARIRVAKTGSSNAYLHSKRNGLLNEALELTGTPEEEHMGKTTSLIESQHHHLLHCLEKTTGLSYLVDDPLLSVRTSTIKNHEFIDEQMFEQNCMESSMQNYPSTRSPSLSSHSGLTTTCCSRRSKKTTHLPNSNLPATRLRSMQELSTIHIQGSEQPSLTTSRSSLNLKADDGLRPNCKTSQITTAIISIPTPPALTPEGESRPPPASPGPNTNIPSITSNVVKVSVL

hNav1.7 = target: T3, hNav1.7 (Homo sapiens, UniProt Q15858); assay: cell-based; conditions: whole-cell patch clamp, HEK293T, SEM
T3 construct: expressed in transfected cells; host or cells: HEK293T
T3 sequence (O60939 30-215): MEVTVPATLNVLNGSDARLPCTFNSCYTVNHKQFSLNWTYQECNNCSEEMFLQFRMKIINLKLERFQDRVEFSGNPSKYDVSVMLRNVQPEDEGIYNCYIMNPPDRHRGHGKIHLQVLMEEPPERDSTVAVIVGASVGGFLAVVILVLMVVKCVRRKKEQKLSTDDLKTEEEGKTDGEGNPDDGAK
T3 sequence (Q15858 other isoform, or with tags, fused parts or gaps): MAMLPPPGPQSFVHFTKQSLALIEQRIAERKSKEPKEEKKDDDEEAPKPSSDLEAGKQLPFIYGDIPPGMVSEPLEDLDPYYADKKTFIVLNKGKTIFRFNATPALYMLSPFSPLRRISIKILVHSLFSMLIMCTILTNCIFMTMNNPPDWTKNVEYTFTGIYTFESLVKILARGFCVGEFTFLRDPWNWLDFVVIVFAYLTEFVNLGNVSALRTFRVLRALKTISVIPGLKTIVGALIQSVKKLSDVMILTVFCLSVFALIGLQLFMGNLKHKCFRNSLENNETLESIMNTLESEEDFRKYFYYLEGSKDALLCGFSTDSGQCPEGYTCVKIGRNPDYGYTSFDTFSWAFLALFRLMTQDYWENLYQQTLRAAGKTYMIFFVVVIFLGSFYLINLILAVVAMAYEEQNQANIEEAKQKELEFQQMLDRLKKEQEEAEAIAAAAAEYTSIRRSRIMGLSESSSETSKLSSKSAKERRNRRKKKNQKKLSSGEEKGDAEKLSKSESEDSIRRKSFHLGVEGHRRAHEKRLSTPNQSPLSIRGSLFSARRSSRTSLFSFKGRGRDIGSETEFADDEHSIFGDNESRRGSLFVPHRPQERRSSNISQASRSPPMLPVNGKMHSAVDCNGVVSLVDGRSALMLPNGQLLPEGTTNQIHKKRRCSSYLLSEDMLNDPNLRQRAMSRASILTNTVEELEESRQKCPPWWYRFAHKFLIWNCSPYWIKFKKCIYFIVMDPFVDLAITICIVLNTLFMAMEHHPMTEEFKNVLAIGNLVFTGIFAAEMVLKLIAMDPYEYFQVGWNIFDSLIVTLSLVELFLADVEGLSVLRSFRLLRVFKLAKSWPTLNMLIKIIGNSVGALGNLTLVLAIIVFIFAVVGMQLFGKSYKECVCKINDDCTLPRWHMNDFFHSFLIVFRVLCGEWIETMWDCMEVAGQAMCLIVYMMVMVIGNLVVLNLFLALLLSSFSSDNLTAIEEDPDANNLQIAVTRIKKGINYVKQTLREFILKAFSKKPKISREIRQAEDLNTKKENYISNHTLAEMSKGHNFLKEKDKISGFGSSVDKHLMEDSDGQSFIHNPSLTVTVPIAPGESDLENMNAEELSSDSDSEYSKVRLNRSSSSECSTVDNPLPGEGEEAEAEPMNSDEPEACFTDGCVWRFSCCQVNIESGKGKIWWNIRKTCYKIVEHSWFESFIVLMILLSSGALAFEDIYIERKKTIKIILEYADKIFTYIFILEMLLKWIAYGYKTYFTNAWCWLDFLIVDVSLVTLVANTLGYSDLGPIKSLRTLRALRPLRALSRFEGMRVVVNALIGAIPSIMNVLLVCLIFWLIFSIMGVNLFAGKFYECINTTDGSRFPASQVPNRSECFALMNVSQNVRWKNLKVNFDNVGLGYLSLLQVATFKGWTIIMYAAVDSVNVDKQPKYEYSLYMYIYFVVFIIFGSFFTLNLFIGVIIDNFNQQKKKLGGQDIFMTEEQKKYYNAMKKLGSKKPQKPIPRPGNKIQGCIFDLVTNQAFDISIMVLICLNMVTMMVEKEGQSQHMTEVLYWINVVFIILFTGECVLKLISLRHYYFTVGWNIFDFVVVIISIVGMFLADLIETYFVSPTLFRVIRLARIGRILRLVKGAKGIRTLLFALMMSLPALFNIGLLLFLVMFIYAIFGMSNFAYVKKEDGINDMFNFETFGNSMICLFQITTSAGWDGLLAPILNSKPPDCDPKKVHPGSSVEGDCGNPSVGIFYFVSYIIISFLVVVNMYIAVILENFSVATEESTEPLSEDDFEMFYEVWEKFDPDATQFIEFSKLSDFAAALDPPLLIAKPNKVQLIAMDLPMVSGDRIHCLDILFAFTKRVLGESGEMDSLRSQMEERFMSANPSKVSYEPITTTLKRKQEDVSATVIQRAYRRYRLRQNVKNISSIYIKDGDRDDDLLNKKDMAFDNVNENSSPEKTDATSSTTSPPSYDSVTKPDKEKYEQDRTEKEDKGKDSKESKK
T3 sequence (Q07699 19-218, further chain): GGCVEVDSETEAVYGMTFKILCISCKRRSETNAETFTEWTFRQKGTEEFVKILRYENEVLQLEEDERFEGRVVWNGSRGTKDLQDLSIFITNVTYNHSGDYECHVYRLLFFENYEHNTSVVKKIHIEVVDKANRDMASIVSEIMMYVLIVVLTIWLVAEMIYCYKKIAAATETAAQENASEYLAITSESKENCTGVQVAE

[2] = same toxin concentrations (footnote b160), mean ± S.E.M., SEM
[3] = mean ± SEM, read-out: IC50 on rKv4.2 WT
[4] = mean ± SEM, this study, read-out: IC50 on hNav1.7

Structure (SMILES): Nc1ccncc1 [4-AP, 4-aminopyridine]
- effect on action potential duration (APD), 4-AP [1]: significantly prolonged

Structure (SMILES): CC(C)C[C@H](NC(=O)[C@H](CC(=O)O)NC(=O)[C@H](Cc1ccc(O)cc1)NC(=O)[C@H](CCCCN)NC(=O)[C@@H]1CSSC[C@@H]2NC(=O)[C@H](CCC(N)=O)NC(=O)[C@H](CC(=O)O)NC(=O)[C@H](CC(N)=O)NC(=O)[C@H](CO)NC(=O)[C@@H]3CCCN3C(=O)[C@H](CC(N)=O)NC(=O)[C@@H]3CSSC[C@H](NC(=O)[C@H](C(C)C)NC(=O)[C@H](CC(C)C)NC(=O)[C@H](CO)NC(=O)[C@H](CO)NC(=O)[C@H](CO)NC(=O)[C@H](CCCCN)NC(=O)[C@H](CSSC[C@H](NC(=O)[C@H](C)N)C(=O)N[C@@H](CC(C)C)C(=O)NCC(=O)N[C@@H](Cc4ccccc4)C(=O)NCC(=O)N[C@@H](CCC(=O)O)C(=O)N[C@@H](CCCCN)C(=O)N3)NC2=O)C(=O)N[C@@H](CO)C(=O)N[C@@H](CCC(N)=O)C(=O)N[C@@H](CCCCN)C(=O)N[C@@H](Cc2c[nH]cn2)C(=O)N[C@@H](CCCCN)C(=O)N[C@@H](Cc2c[nH]c3ccccc23)C(=O)N1)C(N)=O [Ca2a]
- Hill coefficients on rKv4.2 (rKv4.2; Hill fit of concentration-response curves, mean ± S.E.M., n = 4-8): 1.05 ± 0.17
- rKv4.2 voltage dependence of activation, V1/2 with toxin (rKv4.2): 42.0±2.1 mV
- rKv4.2 voltage dependence of inactivation, V1/2 with toxin (rKv4.2): -54.3±1.4 mV
- rKv4.3 voltage dependence of activation, V1/2 with toxin (rKv4.3; SEM): 59.0±3.0 mV
- rKv4.3 voltage dependence of inactivation, V1/2 with toxin (rKv4.3; SEM): -48.1±2.0 mV
- rKv4.3 voltage dependence of activation, κ with toxin (rKv4.3; [2]): 12.2±0.9 mV
- rKv4.3 voltage dependence of inactivation, κ with toxin (rKv4.3; [2]): 4.5±0.2 mV
- influence on the steady-state inactivation of rKv4.3 (rKv4.3; sub-saturation concentration): almost no influence

Structure (SMILES): CC(C)C[C@H](NC(=O)[C@H](Cc1ccc(O)cc1)NC(=O)[C@@H](NC(=O)[C@H](CCCCN)NC(=O)[C@@H]1CSSC[C@@H]2NC(=O)[C@H](CCC(=O)O)NC(=O)[C@H](CC(N)=O)NC(=O)[C@H](CCCCN)NC(=O)CNC(=O)[C@@H]3CCCN3C(=O)[C@H]([C@@H](C)O)NC(=O)[C@@H]3CSSC[C@H](NC(=O)[C@H](C)NC(=O)[C@H](Cc4ccc(O)cc4)NC(=O)[C@H](C)NC(=O)[C@@H]4CCCN4C(=O)[C@H](CSSC[C@H](NC(=O)CN)C(=O)N[C@@H](CCCCN)C(=O)NCC(=O)N[C@@H](Cc4ccccc4)C(=O)NCC(=O)N[C@@H](CC(=O)O)C(=O)N[C@@H](CO)C(=O)N3)NC2=O)C(=O)N[C@@H](CO)C(=O)N[C@@H](CO)C(=O)N[C@@H](CCCCN)C(=O)N[C@@H](Cc2c[nH]cn2)C(=O)N[C@@H](CCCCN)C(=O)N[C@@H](Cc2c[nH]c3ccccc23)C(=O)N1)C(C)C)C(N)=O [N19A] (H-GCKGFGDSCTPGKNECCPAYACSSKHKWCKVYL-NH2; disulfide 2-17, 9-22, 16-29)
- IC50 (rKv4.2; [3]): 64 ± 9 nM
- IC50 (hNav1.7; [4]): 116 ± 9 nM

Structure (SMILES): CC(C)C[C@H](NC(=O)[C@H](Cc1ccc(O)cc1)NC(=O)[C@@H](NC(=O)[C@H](CCCCN)NC(=O)[C@@H]1CSSC[C@@H]2NC(=O)[C@H](CCC(=O)O)NC(=O)[C@H](CC(N)=O)NC(=O)[C@H](CCCCN)NC(=O)CNC(=O)[C@@H]3CCCN3C(=O)[C@H]([C@@H](C)O)NC(=O)[C@@H]3CSSC[C@H](NC(=O)[C@H](C)NC(=O)[C@H](C)NC(=O)[C@H](CC(N)=O)NC(=O)[C@@H]4CCCN4C(=O)[C@H](CSSC[C@H](NC(=O)CN)C(=O)N[C@@H](CCCCN)C(=O)NCC(=O)N[C@@H](Cc4ccccc4)C(=O)NCC(=O)N[C@@H](CC(=O)O)C(=O)N[C@@H](CO)C(=O)N3)NC2=O)C(=O)N[C@@H](CO)C(=O)N[C@@H](CO)C(=O)N[C@@H](CCCCN)C(=O)N[C@@H](Cc2c[nH]cn2)C(=O)N[C@@H](CCCCN)C(=O)N[C@@H](Cc2c[nH]c3ccccc23)C(=O)N1)C(C)C)C(N)=O [Y20A] (H-GCKGFGDSCTPGKNECCPNAACSSKHKWCKVYL-NH2; disulfide 2-17, 9-22, 16-29)
- IC50 (rKv4.2; [3]): 4000 ± 2000 nM
- IC50 (hNav1.7; [4]): 7160 ± 528 nM

Structure (SMILES): CC(C)C[C@H](NC(=O)[C@H](Cc1ccc(O)cc1)NC(=O)[C@@H](NC(=O)[C@H](CCCCN)NC(=O)[C@@H]1CSSC[C@@H]2NC(=O)[C@H](CCC(=O)O)NC(=O)[C@H](CC(N)=O)NC(=O)[C@H](CCCCN)NC(=O)CNC(=O)[C@@H]3CCCN3C(=O)[C@H]([C@@H](C)O)NC(=O)[C@@H]3CSSC[C@H](NC(=O)[C@H](C)NC(=O)[C@H](Cc4c[nH]c5ccccc45)NC(=O)[C@H](CC(N)=O)NC(=O)[C@@H]4CCCN4C(=O)[C@H](CSSC[C@H](NC(=O)CN)C(=O)N[C@@H](CCCCN)C(=O)NCC(=O)N[C@@H](Cc4ccccc4)C(=O)NCC(=O)N[C@@H](CC(=O)O)C(=O)N[C@@H](CO)C(=O)N3)NC2=O)C(=O)N[C@@H](CO)C(=O)N[C@@H](CO)C(=O)N[C@@H](CCCCN)C(=O)N[C@@H](Cc2c[nH]cn2)C(=O)N[C@@H](CCCCN)C(=O)N[C@@H](Cc2c[nH]c3ccccc23)C(=O)N1)C(C)C)C(N)=O [Y20W] (H-GCKGFGDSCTPGKNECCPNWACSSKHKWCKVYL-NH2; disulfide 2-17, 9-22, 16-29)
- IC50 (rKv4.2; [3]): 228 ± 33 nM
- IC50 (hNav1.7; [4]): 495 ± 39 nM

Structure (SMILES): CC(C)C[C@H](NC(=O)[C@H](C)NC(=O)[C@@H](NC(=O)[C@H](CCCCN)NC(=O)[C@@H]1CSSC[C@@H]2NC(=O)[C@H](CCC(=O)O)NC(=O)[C@H](CC(N)=O)NC(=O)[C@H](CCCCN)NC(=O)CNC(=O)[C@@H]3CCCN3C(=O)[C@H]([C@@H](C)O)NC(=O)[C@@H]3CSSC[C@H](NC(=O)[C@H](C)NC(=O)[C@H](Cc4ccc(O)cc4)NC(=O)[C@H](CC(N)=O)NC(=O)[C@@H]4CCCN4C(=O)[C@H](CSSC[C@H](NC(=O)CN)C(=O)N[C@@H](CCCCN)C(=O)NCC(=O)N[C@@H](Cc4ccccc4)C(=O)NCC(=O)N[C@@H](CC(=O)O)C(=O)N[C@@H](CO)C(=O)N3)NC2=O)C(=O)N[C@@H](CO)C(=O)N[C@@H](CO)C(=O)N[C@@H](CCCCN)C(=O)N[C@@H](Cc2c[nH]cn2)C(=O)N[C@@H](CCCCN)C(=O)N[C@@H](Cc2c[nH]c3ccccc23)C(=O)N1)C(C)C)C(N)=O [Y32A] (H-GCKGFGDSCTPGKNECCPNYACSSKHKWCKVAL-NH2; disulfide 2-17, 9-22, 16-29)
- IC50 (rKv4.2; [3]): 1000 ± 177 nM
- IC50 (hNav1.7; [4]): 936 ± 123 nM

Structure (SMILES): CC[C@H](C)[C@@H]1NC(=O)[C@@H]2CSSC[C@@H]3NC(=O)[C@H](C(C)C)NC(=O)[C@H](CC(C)C)NC(=O)[C@H](CC(N)=O)NC(=O)[C@@H]4CCCN4C(=O)[C@H](CCCNC(=N)N)NC(=O)[C@H](CSSC[C@H](NC(=O)[C@@H](N)CC(=O)O)C(=O)N[C@@H](CC(C)C)C(=O)NCC(=O)N[C@@H](C)C(=O)N[C@@H](Cc4ccccc4)C(=O)N[C@@H](CCCNC(=N)N)C(=O)N[C@@H](CCCCN)C(=O)N2)NC(=O)[C@H](CSSC[C@@H](C(=O)N[C@@H](CCCCN)C(=O)N[C@@H](Cc2ccc(O)cc2)C(=O)N[C@H](C(=O)N[C@@H](Cc2ccccc2)C(N)=O)C(C)C)NC(=O)[C@H](Cc2c[nH]c4ccccc24)NC(=O)[C@H](CCCNC(=N)N)NC(=O)[C@H](Cc2c[nH]cn2)NC(=O)[C@H](CC(C)C)NC(=O)[C@H](C)NC(=O)[C@H](CO)NC3=O)NC(=O)[C@H](CCCCN)NC(=O)[C@H](CC(=O)O)NC(=O)[C@H](CC(N)=O)NC(=O)[C@H](CC(=O)O)NC(=O)[C@@H]2CCCN2C1=O [mGpTx1-R25A] (H-DCLGAFRKCIPDNDKCCRPNLVCSALHRWCKYVF-NH2; disulfide 2-17, 9-23, 16-30)
- IC50 (rKv4.2; held at -80 mV, step to 0 mV, mean ± S.E.M., read-out: IC50 for rKv4.2): 57.2 ± 6.2 nM
- IC50 (hNav1.7; hNav1.7 with β1 and β2, held at -90 mV, step to 0 mV, mean ± S.E.M., n = 3-7, read-out: IC50 for hNav1.7): 1.3 ± 0.1 nM
